Laboratory results reported in ChEMBL document CHEMBL3509421, “FDA drug approval package for diclofenac acid (NDA 22-202 CP, Ref ID: 3374276)”.

Assays:
[1] = Mean AUC (0-infinity) value of diclofenac following single oral dosing of 18 mg Zorvolex capsule in healthy human; format: ADME, organism-based; parameters: time infinity, dietary status Fasting, dose 18 mg, dosed compound id 2.46815e+06, dosed compound name Diclofenac, gender Mixed, regimen Single, route oral; details: both, plasma, read-out: AUC (0-infinity)
[2] = Mean AUC (0-t) value of diclofenac following single oral dosing of 18 mg Zorvolex capsule in healthy human; format: ADME, organism-based; parameters: dietary status Fasting, dose 18 mg, dosed compound id 2.46815e+06, dosed compound name Diclofenac, gender Mixed, regimen Single, route oral; details: both, plasma
[3] = Mean AUC (0-infinity) of diclofenac following single oral dosing of 25 mg diclofenac potassium softgel capsule in healthy human; format: ADME, organism-based; parameters: time infinity, dietary status Fed, dose 25 mg, dosed compound id 2.46815e+06, dosed compound name Diclofenac potassium, gender Mixed, regimen Single, route oral, study doses 25/50 mg; details: both, plasma, read-out: AUC (0-infinity)
[4] = Geometric mean for AUC (0-t) of diclofenac following single oral dosing of 35 mg Zorvolex capsule in healthy human; format: ADME, organism-based; parameters: dietary status Fasting, dose 35 mg, dosed compound id 2.46815e+06, dosed compound name Diclofenac, gender Mixed, regimen Single, route oral; details: both, plasma
[5] = Geometric mean for AUC (0-t) of diclofenac following single oral dosing of 18 mg Zorvolex capsule in healthy human; format: ADME, organism-based; parameters: dietary status Fasting, dose 18 mg, dosed compound id 2.46815e+06, dosed compound name Diclofenac, gender Mixed, regimen Single, route oral; details: both, plasma
[6] = Mean apparent terminal elimination rate constant value of diclofenac following single oral dosing of 50 mg Cataflam tablet in healthy human; format: ADME, organism-based, Plasma; parameters: dietary status Fed, dose 50 mg, dosed compound id 2.46815e+06, dosed compound name Diclofenac potassium, gender Mixed, regimen Single, route oral; details: in vivo
[7] = Mean Cmax of diclofenac following single oral dosing of 50 mg Cataflam in healthy human; format: ADME, organism-based; parameters: dietary status Fasting, dose 50 mg, dosed compound id 2.46815e+06, dosed compound name Diclofenac potassium, gender Mixed, regimen Single, route oral, study doses 50 mg; details: both, plasma
[8] = Geometric mean for Cmax of diclofenac following single oral dosing of 35 mg Zorvolex capsule in healthy human; format: ADME, organism-based; parameters: dietary status Fasting, dose 35 mg, dosed compound id 2.46815e+06, dosed compound name Diclofenac, gender Mixed, regimen Single, route oral; details: both, plasma
[9] = (§1) Mean AUC (0-t) value of diclofenac following single oral dosing of 50 mg Cataflam tablet in healthy human; format: ADME, organism-based; parameters: dietary status Fed, dose 50 mg, dosed compound id 2.46815e+06, dosed compound name Diclofenac potassium, gender Mixed, regimen Single, route oral; details: both, plasma
[10] = Mean Cmax of diclofenac following single oral dosing of 25 mg diclofenac potassium softgel capsule in healthy human; format: ADME, organism-based; parameters: dietary status Fed, dose 25 mg, dosed compound id 2.46815e+06, dosed compound name Diclofenac potassium, gender Mixed, regimen Single, route oral, study doses 25/50 mg; details: both, plasma
[11] = Mean Cmax value of diclofenac following single oral dosing of 50 mg Cataflam tablet in healthy human; format: ADME, organism-based; parameters: dietary status Fasting, dose 50 mg, dosed compound id 2.46815e+06, dosed compound name Diclofenac potassium, gender Mixed, regimen Single, route oral; details: both, plasma
[12] = clinical; details: both, human, plasma, po, 35 mg
[13] = Mean Tmax of diclofenac following single oral dosing of 25 mg diclofenac potassium softgel capsule in healthy human; format: ADME, organism-based; parameters: dietary status Fasting, dose 25 mg, dosed compound id 2.46815e+06, dosed compound name Diclofenac potassium, gender Mixed, regimen Single, route oral, study doses 25/50 mg; details: both, plasma
[14] = (§2) Geometric mean for apparent terminal elimination rate constant of diclofenac following single oral dosing of 35 mg Zorvolex capsule in healthy human; format: ADME, organism-based, Plasma; parameters: dietary status Fasting, dose 35 mg, dosed compound id 2.46815e+06, dosed compound name Diclofenac, gender Mixed, regimen Single, route oral; details: in vivo
[15] = as §2; format: ADME, organism-based, Plasma; parameters: dietary status Fed, dose 35 mg, dosed compound id 2.46815e+06, dosed compound name Diclofenac, gender Mixed, regimen Single, route oral; details: in vivo
[16] = clinical; details: both, human, plasma, po, 50 mg
[17] = Mean Tmax of diclofenac following single oral dosing of 50 mg diclofenac potassium softgel capsule in healthy human; format: ADME, organism-based; parameters: dietary status Fed, dose 50 mg, dosed compound id 2.46815e+06, dosed compound name Diclofenac potassium, gender Mixed, regimen Single, route oral, study doses 25/50 mg; details: both, plasma
[18] = clinical; details: both, human, plasma, po, 50 mg; remark: listed apart in the source
Description: Mean terminal elimination half-life of diclofenac following single oral dosing of 50 mg diclofenac potassium softgel capsule in healthy human

[19] = Minimum tmax of diclofenac following single oral dosing of 50 mg Cataflam tablet in healthy human; format: ADME, organism-based, Plasma; parameters: dietary status Fed, dose 50 mg, dosed compound id 2.46815e+06, dosed compound name Diclofenac potassium, gender Mixed, regimen Single, route oral; details: in vivo
[20] = Mean maximum Tmax value of diclofenac potassium following oral dosing of PRO-513 50 mg sachet in healthy human; format: ADME, organism-based; parameters: dietary status Fed, dose 50 mg, dosed compound id 2.46815e+06, dosed compound name Diclofenac potassium, gender Mixed, regimen Single, route oral, study doses 50 mg; details: both, plasma, read-out: Maximum Tmax
[21] = Mean Cmax of diclofenac potassium following oral dosing of Cataflam 50 mf tablet in healthy human; format: ADME, organism-based; parameters: dietary status Fed, dose 50 mg, dosed compound id 2.46815e+06, dosed compound name Diclofenac potassium, gender Mixed, regimen Single, route oral, study doses 50 mg; details: both, plasma, 50 mg
[22] = Mean AUC (0-t) value of diclofenac following single oral dosing of 35 mg Zorvolex capsule in healthy human; format: ADME, organism-based; parameters: dietary status Fasting, dose 35 mg, dosed compound id 2.46815e+06, dosed compound name Diclofenac, gender Mixed, regimen Single, route oral; details: both, plasma
[23] = as §1; format: ADME, organism-based; parameters: dietary status Fasting, dose 50 mg, dosed compound id 2.46815e+06, dosed compound name Diclofenac potassium, gender Mixed, regimen Single, route oral; details: both, plasma
[24] = Mean Cmax value of diclofenac following single oral dosing of 35 mg Zorvolex capsule in healthy human; format: ADME, organism-based; parameters: dietary status Fasting, dose 35 mg, dosed compound id 2.46815e+06, dosed compound name Diclofenac, gender Mixed, regimen Single, route oral; details: both, plasma
[25] = Mean minimum Tmax value of diclofenac potassium following oral dosing of Cataflam 50 mf tablet in healthy human; format: ADME, organism-based; parameters: dietary status Fasting, dose 50 mg, dosed compound id 2.46815e+06, dosed compound name Diclofenac potassium, gender Mixed, regimen Single, route oral, study doses 50 mg; details: both, plasma, 50 mg, read-out: Minimum Tmax
[26] = Mean AUC (0-infinity) of diclofenac following single oral dosing of 50 mg diclofenac potassium softgel capsule in healthy human; format: ADME, organism-based; parameters: time infinity, dietary status Fed, dose 50 mg, dosed compound id 2.46815e+06, dosed compound name Diclofenac potassium, gender Mixed, regimen Single, route oral, study doses 25/50 mg; details: both, plasma, read-out: AUC (0-infinity)
[27] = Mean Cmax of diclofenac following single oral dosing of 25 mg diclofenac potassium soft gelatin capsule in healthy human; format: ADME, organism-based; parameters: dietary status Fasting, dose 25 mg, dosed compound id 2.46815e+06, dosed compound name Diclofenac potassium, gender Mixed, regimen Single, route oral, study doses 25/50 mg; details: both, plasma
[28] = Mean AUC(0-t) of diclofenac potassium following oral dosing of Cataflam 50 mf tablet in healthy human; format: ADME, organism-based; parameters: dietary status Fasting, dose 50 mg, dosed compound id 2.46815e+06, dosed compound name Diclofenac potassium, gender Mixed, regimen Single, route oral, study doses 50 mg; details: both, plasma, 50 mg
[29] = Mean AUC(0-t) of diclofenac potassium following oral dosing of PRO-513 50 mg sachet in healthy human; format: ADME, organism-based; parameters: dietary status Fed, dose 50 mg, dosed compound id 2.46815e+06, dosed compound name Diclofenac potassium, gender Mixed, regimen Single, route oral, study doses 50 mg; details: both, plasma
[30] = Median tmax of diclofenac following single oral dosing of 35 mg Zorvolex capsule in healthy human; format: ADME, organism-based; parameters: dietary status Fed, dose 35 mg, dosed compound id 2.46815e+06, dosed compound name Diclofenac, gender Mixed, regimen Single, route oral; details: both, plasma, read-out: Median Tmax
[31] = Maximum tmax of diclofenac following single oral dosing of 50 mg Cataflam tablet in healthy human; format: ADME, organism-based, Plasma; parameters: dietary status Fasting, dose 50 mg, dosed compound id 2.46815e+06, dosed compound name Diclofenac potassium, gender Mixed, regimen Single, route oral; details: in vivo
[32] = Mean Cmax value of diclofenac following single oral dosing of 18 mg Zorvolex capsule in healthy human; format: ADME, organism-based; parameters: dietary status Fasting, dose 18 mg, dosed compound id 2.46815e+06, dosed compound name Diclofenac, gender Mixed, regimen Single, route oral; details: both, plasma

Question: Which AUC(0-inf) [1] does the source give for O=C(O)Cc1ccccc1Nc1c(Cl)cccc1Cl [DICLOFENAC] here?
Answer: 499 ng·h/mL

Question: What about the AUC(0-t) [2] of the same compound?
Answer: 490 ng·h/mL

Question: What about the AUC(0-inf) [3] of the same compound?
Answer: 713 ng·h/mL

Question: And the AUC(0-t) [4]?
Answer: 980 ng·h/mL

Question: And the AUC(0-t) [5]?
Answer: 478 ng·h/mL

Question: And the lambda-z [6]?
Answer: 0.332 h⁻¹

Question: And the Cmax [7]?
Answer: 1170 ng/mL

Question: What about the Cmax [8] of the same compound?
Answer: 804 ng/mL

Question: What about the AUC(0-t) [9] of the same compound?
Answer: 1180 ng·h/mL

Question: And the Cmax [10]?
Answer: 686 ng/mL

Question: What about the Cmax [11] of the same compound?
Answer: 1190 ng/mL

Question: What about the half-life [12] of the same compound?
Answer: 126 min

Question: What about the Tmax [13] of the same compound?
Answer: 29.4 min

Question: And the lambda-z [14]?
Answer: 0.34 h⁻¹

Question: What about the lambda-z [15] of the same compound?
Answer: 0.333 h⁻¹

Question: What about the half-life [16] of the same compound?
Answer: 136 min

Question: What about the Tmax [17] of the same compound?
Answer: 1.28 h

Question: What about the half-life [18] of the same compound?
Answer: 66 min

Question: What about the “Minimum Tmax” value [19] of the same compound?
Answer: 30 min

Question: And the Tmax [20]?
Answer: 4 h

Question: What about the Cmax [21] of the same compound?
Answer: 835 ng/mL

Question: And the AUC(0-t) [22]?
Answer: 1000 ng·h/mL

Question: What about the AUC(0-t) [23] of the same compound?
Answer: 1320 ng·h/mL

Question: And the Cmax [24]?
Answer: 869 ng/mL

Question: And the Tmax [25]?
Answer: 15 min

Question: And the AUC(0-inf) [26]?
Answer: 1460 ng·h/mL

Question: What about the Cmax [27] of the same compound?
Answer: 1120 ng/mL

Question: What about the AUC(0-t) [28] of the same compound?
Answer: 1080 ng·h/mL

Question: What about the AUC(0-t) [29] of the same compound?
Answer: 1050 ng·h/mL

Question: What about the Tmax [30] of the same compound?
Answer: 3.32 h

Question: And the “Maximum Tmax” value [31]?
Answer: 4.48 h

Question: And the Cmax [32]?
Answer: 496 ng/mL
